Measurements from patent US20050136445A1, “Recombinant DNA vector, recombinant bio-luminescent bacterium and method for detecting bio-inhibitory substances using same” (Industrial Technology Research Institute, priority 2003, published 2005).

Test system: recombinant luminescent bacteria, pLWY-fabG (in Serratia marcescens) and pLWY-sh1A (in Serratia marcescens)
Assay: Luminosity (RLU) of recombinant bio-luminescent bacteria after mixing with test sample
Assay type: cell-based
Conditions: 200 μl bacterial liquid + 20 μl test sample, react for 15 minutes, luminosity detected for 20 sec; expressed as percentage of purified water control (100%)
Description: The technique developed in this invention that allows speedy detection of bio-inhibitory substances in wastewater is based on the principle that such substance poses a negative effect on the luminescent ability of recombinant luminescent bacteria, pLWY-fabG (in Serratia marcescens) and pLWY-sh1A (in Serratia marcescens) as provided herein. The detailed process for detecting bio-inhibitory substances in wastewater using the foregoing recombinant bio-luminescent bacteria are described below: 1. Culture the constructed foregoing recombinant bio-luminescent bacteria for 18-24 hours (O.D. >2); 2. Dilute the bacterial liquid at 1:100 with fresh LB broth the next day; 3. Shake culture at 225 rpm under 30° C. for one hour; 4. Mix 200 μl of bacterial liquid with 20 μl of test sample; mix well and let them react for 15 minutes; and 5. Use luminometer Berthold Lumat LB9507 to detect luminosity for 20 sec and the results are shown in relative light unit (RLU).
To preclude environmental error, each batch of test samples must include purified water to be treated as a positive control with RLU set as 100% for a standard reference. Given that the RLU of negative control (LB broth) is 0, it was not measured. The test results of samples are expressed as a percentage of the positive control. In this test, the amount of bacterial liquid used was 200 μl and that of test sample was 20 μl. Therefore the concentration of test sample was diluted to 1/11 of the original liquid at the time of testing. The concentrations of samples shown in the table are the detected concentration.

| SMILES | luminosity (RLU value) of the recombinant bio-luminescent bacterium versus concentration of the bio-inhibitory substance |
| --- | --- |
| CC#N [acetonitrile] | the higher is the acetonitrile concentration, the lower is the RLU value |
| Oc1ccccc1 [phenol] | the higher is the phenol concentration, the lower is the RLU value |
| [Zn+2] [zinc ion] | the higher is the zinc ion concentration, the lower is the RLU value |
